IC50 data for one compound are collected here from patent EP2913333A1 (priority 2014, dated 2015).

In one assay the target is T1, E. feacalis DltA (Enterococcus faecalis, UniProt Q830N0).
T1 sequence (Q830N0 1-506): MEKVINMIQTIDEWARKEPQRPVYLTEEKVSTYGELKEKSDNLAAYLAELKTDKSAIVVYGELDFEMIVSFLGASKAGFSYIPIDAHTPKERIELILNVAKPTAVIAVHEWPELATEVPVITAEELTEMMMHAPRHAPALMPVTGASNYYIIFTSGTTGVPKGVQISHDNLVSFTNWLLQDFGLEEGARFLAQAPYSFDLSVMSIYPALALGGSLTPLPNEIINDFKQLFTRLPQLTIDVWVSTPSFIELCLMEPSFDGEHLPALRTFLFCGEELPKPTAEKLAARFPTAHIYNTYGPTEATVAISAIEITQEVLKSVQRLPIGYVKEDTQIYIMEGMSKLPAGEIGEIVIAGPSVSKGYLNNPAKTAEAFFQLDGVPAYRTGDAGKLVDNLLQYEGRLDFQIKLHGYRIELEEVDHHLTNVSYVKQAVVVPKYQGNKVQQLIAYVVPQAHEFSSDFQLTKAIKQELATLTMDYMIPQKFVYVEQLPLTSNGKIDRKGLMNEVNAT
The experiment in a line: biochemical.

The next assay concerns the target T2, S. Agalactiae DltA (Streptococcus agalactiae serotype III, UniProt Q8VM67).
T2 sequence (Q8VM67 1-511): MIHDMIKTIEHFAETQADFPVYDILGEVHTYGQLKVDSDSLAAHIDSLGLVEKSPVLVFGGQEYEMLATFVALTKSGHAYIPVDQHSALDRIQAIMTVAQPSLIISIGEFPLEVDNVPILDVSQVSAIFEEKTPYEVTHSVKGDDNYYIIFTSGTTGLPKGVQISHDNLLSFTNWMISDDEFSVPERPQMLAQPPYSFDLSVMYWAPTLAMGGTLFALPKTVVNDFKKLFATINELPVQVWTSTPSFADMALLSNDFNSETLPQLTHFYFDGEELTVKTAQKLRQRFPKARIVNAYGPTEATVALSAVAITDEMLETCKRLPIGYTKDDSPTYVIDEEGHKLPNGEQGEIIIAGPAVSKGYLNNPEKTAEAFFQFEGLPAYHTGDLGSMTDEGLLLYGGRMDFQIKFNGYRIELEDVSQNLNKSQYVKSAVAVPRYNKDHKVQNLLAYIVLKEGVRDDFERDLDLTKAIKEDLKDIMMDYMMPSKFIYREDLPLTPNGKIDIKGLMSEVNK
In words: biochemical.

The target in the next assay is T3, E. feacium DltA (Enterococcus faecium, UniProt Q3XZT7).
T3 sequence (Q3XZT7 1-504): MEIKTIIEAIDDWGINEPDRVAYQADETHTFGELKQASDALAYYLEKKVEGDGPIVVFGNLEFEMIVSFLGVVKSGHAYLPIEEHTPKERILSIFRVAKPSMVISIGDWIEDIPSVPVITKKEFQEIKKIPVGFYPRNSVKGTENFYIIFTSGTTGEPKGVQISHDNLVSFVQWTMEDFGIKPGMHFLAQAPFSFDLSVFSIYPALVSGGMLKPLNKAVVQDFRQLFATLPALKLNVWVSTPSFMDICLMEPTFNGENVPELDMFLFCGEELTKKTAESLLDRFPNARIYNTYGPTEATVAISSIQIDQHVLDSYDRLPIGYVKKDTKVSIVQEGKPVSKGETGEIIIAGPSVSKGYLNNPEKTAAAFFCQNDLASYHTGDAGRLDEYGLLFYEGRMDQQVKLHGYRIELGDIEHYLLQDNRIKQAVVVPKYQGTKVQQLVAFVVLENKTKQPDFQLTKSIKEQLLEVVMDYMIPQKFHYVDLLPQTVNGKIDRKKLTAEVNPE
In words: in vitro DltA activity assay (luminescence, IC50 determination). The assay is classed as biochemical. The following applies: recombinant DltA, 30min preincubation at room temperature, 0.5mM D-Alanine, 0.5-5µM ATP; read-out: E. feacium DltA IC50.

The target in another assay is T4, S. aureus DltA (Staphylococcus aureus, UniProt Q2FZW6).
T4 construct: made in house; host or cells: E. coli BL21
T4 sequence (Q2FZW6 1-485): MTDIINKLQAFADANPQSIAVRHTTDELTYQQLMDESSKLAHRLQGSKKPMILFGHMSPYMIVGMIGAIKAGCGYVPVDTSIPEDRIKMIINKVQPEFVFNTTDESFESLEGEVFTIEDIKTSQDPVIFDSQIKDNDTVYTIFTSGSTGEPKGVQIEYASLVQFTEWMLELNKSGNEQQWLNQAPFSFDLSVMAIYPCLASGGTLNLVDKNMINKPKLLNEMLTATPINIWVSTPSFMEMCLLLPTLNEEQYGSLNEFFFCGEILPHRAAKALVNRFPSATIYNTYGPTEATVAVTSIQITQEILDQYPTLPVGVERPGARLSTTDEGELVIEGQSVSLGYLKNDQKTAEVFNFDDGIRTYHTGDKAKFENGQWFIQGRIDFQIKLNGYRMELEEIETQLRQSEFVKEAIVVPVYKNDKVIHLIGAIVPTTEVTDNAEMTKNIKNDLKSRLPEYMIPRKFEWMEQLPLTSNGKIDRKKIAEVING
The description is as above. In kind it is biochemical.

The IC50 is the concentration needed to halve the response being measured. With `O=c1[nH]cnc2c(-c3ccc4c(c3)ncn4[C@@H]3CCCC[C@H]3F)sc(N3CC[C@H](CO)C3)c12` [Example 47, 7-[1-((1R,2R)-2-fluoro-cyclohexyl)-1H-benzoimidazol-5-yl]-5-((S)-3-hydroxymethyl-pyrrolidin-1-yl)-3H-thieno[3,4-d]pyrimidin-4-one], the IC50 on E. feacalis DltA is 46 nM; at S. Agalactiae DltA, 2600 nM; on E. feacium DltA it was 110 nM; at S. aureus DltA, 77 nM.
